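Grown in 96-well plates, cells were treated for 48 hours with each compound at five concentrations. Insufficient inhibition: endpoint recorded as highest concentration tested. Abbreviation: GI50, concentration required for 50% inhibition of growth. At the TGI there is no net growth.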
Columns and labels:
Test in all cases: growth of human tumour cells (NCI), 48 h
HL-60(TB) leukemia = test system: HL-60(TB) leukemia
UACC-62 melanoma = test system: UACC-62 melanoma
HOP-92 NSCLC = test system: HOP-92 NSCLC
SNB-19 CNS = test system: SNB-19 CNS
MOLT-4 leukemia = test system: MOLT-4 leukemia
OVCAR-5 ovarian = test system: OVCAR-5 ovarian
SK-MEL-28 melanoma = test system: SK-MEL-28 melanoma
OVCAR-8 ovarian = test system: OVCAR-8 ovarian
CAKI-1 renal = test system: CAKI-1 renal
SF-539 CNS = test system: SF-539 CNS
IGROV1 ovarian = test system: IGROV1 ovarian
HCC-2998 colon = test system: HCC-2998 colon
U251 CNS = test system: U251 CNS
SW-620 colon = test system: SW-620 colon
MDA-MB-435 = test system: MDA-MB-435
UACC-257 melanoma = test system: UACC-257 melanoma
HOP-62 NSCLC = test system: HOP-62 NSCLC
DU-145 prostate = test system: DU-145 prostate
SNB-75 CNS = test system: SNB-75 CNS
RXF 393 renal = test system: RXF 393 renal
BT-549 breast = test system: BT-549 breast
SF-295 CNS = test system: SF-295 CNS
786-0 renal = test system: 786-0 renal
KM12 colon = test system: KM12 colon
NCI-H460 lung = test system: NCI-H460 lung
T-47D breast = test system: T-47D breast
HS 578T breast = test system: HS 578T breast
HT29 colon = test system: HT29 colon
SK-MEL-2 melanoma = test system: SK-MEL-2 melanoma
NCI/ADR-RES ovarian = test system: NCI/ADR-RES ovarian
HCT-15 colon = test system: HCT-15 colon
SR leukemia = test system: SR leukemia
OVCAR-4 ovarian = test system: OVCAR-4 ovarian
COLO 205 colon = test system: COLO 205 colon
NCI-H23 lung = test system: NCI-H23 lung
M14 melanoma = test system: M14 melanoma
ACHN renal = test system: ACHN renal
CCRF-CEM leukemia = test system: CCRF-CEM leukemia
OVCAR-3 ovarian = test system: OVCAR-3 ovarian
NCI-H226 lung = test system: NCI-H226 lung
EKVX NSCLC = test system: EKVX NSCLC
TK-10 renal = test system: TK-10 renal
MDA-MB-231 breast = test system: MDA-MB-231 breast
LOX IMVI melanoma = test system: LOX IMVI melanoma
PC-3 prostate = test system: PC-3 prostate
A549 NSCLC = test system: A549 NSCLC
SK-OV-3 ovarian = test system: SK-OV-3 ovarian
MCF7 breast = test system: MCF7 breast
RPMI-8226 leukemia = test system: RPMI-8226 leukemia
A498 renal = test system: A498 renal
HCT-116 colon = test system: HCT-116 colon
SF-268 CNS = test system: SF-268 CNS
SK-MEL-5 melanoma = test system: SK-MEL-5 melanoma
NCI-H522 lung = test system: NCI-H522 lung
SN12C renal = test system: SN12C renal
K-562 leukemia = test system: K-562 leukemia
UO-31 renal = test system: UO-31 renal

## O=C(Nc1ccccc1C(F)(F)F)c1ccc(NC2=C(Cl)C(=O)N(Cc3ccccc3)C2=O)cc1
HL-60(TB) leukemia
  GI50: 2.96 µM
  TGI: 17.6 µM
UACC-62 melanoma
  GI50: 18.1 µM
  TGI: 59.2 µM
HOP-92 NSCLC
  GI50: 11.3 µM
  TGI: 35.2 µM
SNB-19 CNS
  GI50: 36.6 µM
  TGI: > 100 µM
MOLT-4 leukemia
  GI50: 3.14 µM
  TGI: 31.6 µM
OVCAR-5 ovarian
  GI50: 58 µM
  TGI: > 100 µM
SK-MEL-28 melanoma
  GI50: > 100 µM
  TGI: > 100 µM
OVCAR-8 ovarian
  GI50: 28.7 µM
  TGI: > 100 µM
CAKI-1 renal
  GI50: 1.97 µM
  TGI: 4.15 µM
SF-539 CNS
  GI50: 23 µM
  TGI: 59.5 µM
IGROV1 ovarian
  GI50: 19.3 µM
  TGI: 65.9 µM
HCC-2998 colon
  GI50: 16.3 µM
  TGI: 35.6 µM
U251 CNS
  GI50: 23.5 µM
  TGI: > 100 µM
SW-620 colon
  GI50: > 100 µM
  TGI: > 100 µM
MDA-MB-435
  GI50: 51.5 µM
  TGI: > 100 µM
UACC-257 melanoma
  GI50: 28.7 µM
  TGI: 82.9 µM
HOP-62 NSCLC
  GI50: 21.5 µM
  TGI: 43.1 µM
DU-145 prostate
  GI50: 34.2 µM
  TGI: > 100 µM
SNB-75 CNS
  GI50: 36.5 µM
  TGI: > 100 µM
RXF 393 renal
  GI50: 13.8 µM
  TGI: 37.7 µM
BT-549 breast
  GI50: 24 µM
  TGI: 58.3 µM
SF-295 CNS
  GI50: 31.8 µM
  TGI: > 100 µM
786-0 renal
  GI50: 33.7 µM
  TGI: > 100 µM
KM12 colon
  GI50: > 100 µM
  TGI: > 100 µM
NCI-H460 lung
  GI50: 33.2 µM
  TGI: > 100 µM
T-47D breast
  GI50: > 100 µM
  TGI: > 100 µM
HS 578T breast
  GI50: 43.6 µM
  TGI: > 100 µM
HT29 colon
  GI50: > 100 µM
  TGI: > 100 µM
SK-MEL-2 melanoma
  GI50: 40.6 µM
  TGI: > 100 µM
NCI/ADR-RES ovarian
  GI50: 39.3 µM
  TGI: > 100 µM
HCT-15 colon
  GI50: 4.19 µM
  TGI: > 100 µM
SR leukemia
  GI50: 1.85 µM
  TGI: 3.86 µM
OVCAR-4 ovarian
  GI50: 33.5 µM
  TGI: > 100 µM
COLO 205 colon
  GI50: 98.1 µM
  TGI: > 100 µM
NCI-H23 lung
  GI50: 15.6 µM
  TGI: 34.2 µM
M14 melanoma
  GI50: 51.6 µM
  TGI: > 100 µM
ACHN renal
  GI50: 33.7 µM
  TGI: > 100 µM
CCRF-CEM leukemia
  GI50: 2.95 µM
  TGI: 12.7 µM
OVCAR-3 ovarian
  GI50: 13.1 µM
  TGI: 76.9 µM
NCI-H226 lung
  GI50: 13.6 µM
  TGI: 92.2 µM
EKVX NSCLC
  GI50: 86.9 µM
  TGI: > 100 µM
TK-10 renal
  GI50: 17.6 µM
  TGI: 52.5 µM
MDA-MB-231 breast
  GI50: 12.8 µM
  TGI: 38.4 µM
LOX IMVI melanoma
  GI50: 18.8 µM
  TGI: > 100 µM
PC-3 prostate
  GI50: 12.2 µM
  TGI: > 100 µM
A549 NSCLC
  GI50: 40.5 µM
  TGI: > 100 µM
SK-OV-3 ovarian
  GI50: 57.7 µM
  TGI: > 100 µM
MCF7 breast
  GI50: 7.33 µM
  TGI: > 100 µM
RPMI-8226 leukemia
  GI50: 8.4 µM
  TGI: > 100 µM
A498 renal
  GI50: 38.3 µM
  TGI: 89.4 µM
HCT-116 colon
  GI50: 29.4 µM
  TGI: > 100 µM
SF-268 CNS
  GI50: 24.3 µM
  TGI: 94.6 µM
SK-MEL-5 melanoma
  GI50: 48.7 µM
  TGI: > 100 µM
NCI-H522 lung
  GI50: 40.3 µM
  TGI: > 100 µM
SN12C renal
  GI50: 18.6 µM
  TGI: > 100 µM
K-562 leukemia
  GI50: 5.65 µM
  TGI: 80.5 µM

## ClCc1ccc(Cn2cnc3c(Cl)ncnc32)cc1
HL-60(TB) leukemia
  GI50: 10.1 µM
  TGI: 23.1 µM
UACC-62 melanoma
  GI50: 9.76 µM
  TGI: 19.5 µM
HOP-92 NSCLC
  GI50: 8.48 µM
  TGI: 39.9 µM
SNB-19 CNS
  GI50: 16.9 µM
  TGI: 43.3 µM
MOLT-4 leukemia
  GI50: 11.8 µM
  TGI: > 56.2 µM
OVCAR-5 ovarian
  GI50: 18.2 µM
  TGI: 34.7 µM
SK-MEL-28 melanoma
  GI50: > 28.1 µM
  TGI: > 55.7 µM
OVCAR-8 ovarian
  GI50: 16.5 µM
  TGI: 44.2 µM
UO-31 renal
  TGI: > 21.5 µM
CAKI-1 renal
  GI50: 2.26 µM
  TGI: 8.78 µM
SF-539 CNS
  GI50: 10.9 µM
  TGI: 29.2 µM
IGROV1 ovarian
  GI50: 13.6 µM
  TGI: 42 µM
U251 CNS
  GI50: 6.4 µM
  TGI: 15.1 µM
SW-620 colon
  GI50: 7.67 µM
  TGI: 19.4 µM
MDA-MB-435
  GI50: 13 µM
  TGI: 23.3 µM
UACC-257 melanoma
  GI50: 24.2 µM
  TGI: 50 µM
HOP-62 NSCLC
  GI50: 11 µM
  TGI: 23.7 µM
DU-145 prostate
  GI50: 7.3 µM
  TGI: 25.5 µM
SNB-75 CNS
  GI50: > 42 µM
  TGI: > 67 µM
RXF 393 renal
  GI50: 13 µM
  TGI: 30.4 µM
BT-549 breast
  GI50: 21.9 µM
  TGI: 45.8 µM
SF-295 CNS
  GI50: 5.71 µM
  TGI: 19.2 µM
786-0 renal
  TGI: > 20 µM
KM12 colon
  GI50: 10.3 µM
  TGI: 30.2 µM
NCI-H460 lung
  GI50: 1.34 µM
  TGI: 15.6 µM
T-47D breast
  TGI: > 100 µM
HS 578T breast
  GI50: 13.6 µM
  TGI: 29.1 µM
HT29 colon
  GI50: > 45 µM
  TGI: > 100 µM
SK-MEL-2 melanoma
  GI50: 19.7 µM
  TGI: > 92.8 µM
NCI/ADR-RES ovarian
  GI50: 10.8 µM
  TGI: 25.2 µM
HCT-15 colon
  GI50: 10.6 µM
  TGI: > 36.7 µM
SR leukemia
  GI50: 0.0902 µM
OVCAR-4 ovarian
  TGI: > 25.7 µM
COLO 205 colon
  GI50: 13.7 µM
  TGI: > 100 µM
NCI-H23 lung
  GI50: 6.99 µM
  TGI: 17.3 µM
M14 melanoma
  GI50: 9.84 µM
  TGI: 19 µM
ACHN renal
  GI50: 4.04 µM
  TGI: 11.5 µM
CCRF-CEM leukemia
  GI50: 4.64 µM
  TGI: > 48.8 µM
OVCAR-3 ovarian
  GI50: 8.73 µM
  TGI: 18.5 µM
NCI-H226 lung
  GI50: 12.7 µM
  TGI: 28.6 µM
EKVX NSCLC
  GI50: 9.68 µM
  TGI: 19.5 µM
TK-10 renal
  GI50: 11.3 µM
  TGI: 23.6 µM
MDA-MB-231 breast
  GI50: 10.4 µM
  TGI: 20.8 µM
LOX IMVI melanoma
  GI50: 5.8 µM
  TGI: 20.4 µM
PC-3 prostate
  GI50: 18 µM
  TGI: 56.3 µM
A549 NSCLC
  GI50: 11.2 µM
  TGI: 38.3 µM
SK-OV-3 ovarian
  GI50: 20 µM
  TGI: 47.6 µM
MCF7 breast
  GI50: 4.65 µM
  TGI: 55.7 µM
RPMI-8226 leukemia
  GI50: 12.2 µM
  TGI: 33.5 µM
A498 renal
  GI50: 29.4 µM
  TGI: 50.4 µM
HCT-116 colon
  GI50: 10.4 µM
  TGI: 17.4 µM
SF-268 CNS
  GI50: 6.03 µM
  TGI: 16.5 µM
SK-MEL-5 melanoma
  GI50: 11.7 µM
  TGI: 35.9 µM
NCI-H522 lung
  GI50: 11.5 µM
  TGI: 75.7 µM
SN12C renal
  GI50: 8.46 µM
  TGI: 20.5 µM
K-562 leukemia
  GI50: 15.4 µM
  TGI: > 63 µM
